The record followed here is US10092657B2, “Opsonized β-glucan preparations and methods” (Biothera, Inc., priority 2011, dated 2018).

The test system of assay [1] is human neutrophils. As to the kind of experiment: Binding studies on the role of complement proteins in serum, neutrophils. Particulars: for Effect of the agent added to serum or media on binding of PGG β-glucan: compstatin/control peptide 20 or 100 μM, methylamine 0.67%, 166-32 20 μg/mL, HSA 10%. It is filed as cell-based. As for the experimental part:
(§1) Heat-inactivated (HI) serum was prepared by incubating serum in a 56° C. water bath for 30 minutes. […] Treatment of serum with methylamine (MA) was done by incubating serum with 0.67% of methylamine for 2.5 hours at 37° C., followed by three washes with DPBS using Amicon centrifugal filter unit with a 3K MW cut-off (Millipore, Billerica, Mass.). DPBS-treated serum was prepared in the same manner and used as control serum for MA-treated serum. For blocking of factor D in the serum, 166-32 at concentration 20 μg/mL was incubated with serum on ice for 30 minutes, and then used for binding studies. For binding experiments in the presence of EGTA or MgEGTA, serum was incubated with 10 mM EGTA with or without 10 mM MgCl2 for 10 minutes at room temperature. The untreated and EGTA/MgEGTA-treated serum was then used to pre-treat PGG and perform binding studies as described earlier.

Assay [2] concerns human monocytes. As to the kind of experiment: Binding studies on the role of complement proteins in serum, monocytes. It is filed as cell-based. Particulars: for Effect of the agent added to serum or media on binding of PGG β-glucan: compstatin/control peptide 20 or 100 μM, methylamine 0.67%, 166-32 20 μg/mL, HSA 10%. As for the experimental part: as §1
Assay [3] concerns the target T1, iC3b (Homo sapiens, UniProt P01024).
T1 construct: from tissue
Briefly: ELISA for iC3b deposition on immobilized PGG β-glucan. In kind it is binding. Conditions: for Effect of serum treatment on iC3b deposition on immobilized β-glucan: methylamine 0.67%, 10 mM EGTA, 10 mM EGTA+10 mM MgCl2. The protocol: PGG β-glucan or dextran was immobilized on wells of a 96-well polystyrene plate (COSTAR, Coming, Inc., Lowell, Mass.) by drying the glucans at 50° C. followed by UV cross-linking. The glucan-coated plate was first blocked with 1% BSA before incubation with untreated serum or serum undergone various treatments as described in binding studies, diluted 1:2 with wash buffer (PBS/0.05% Tween-20) for 30 minutes at 37° C. After washing the serum from the plate, the bound iC3b was probed using the anti-iC3b monoclonal antibody followed by biotin-labeled goat anti-mouse IgG Ab. The amount of immobilized biotin-labeled antibody was determined using streptavidin peroxidase and TMB substrate solution (KPL, Gaithersburg, Md.). OD450 of each well was measured with the spectrophotometer SpectraMAX 250 (Molecular Devices, Sunnyvale, Calif.). Fold change was calculated as OD450 of wells containing immobilized β-glucan divided by OD450 of wells containing no β-glucan, both incubated in the presence of treated or untreated serum.
For orientation: In an ELISA, binding on a coated surface is turned into a signal by an enzyme label.

Assay [4] deals with human neutrophils. As to the kind of experiment: Binding of PGG β-glucan after serum pre-treatment, neutrophils. In kind it is cell-based. Particulars: 10 mM EGTA with or without 10 mM MgCl2; vs untreated serum. As for the experimental part:
(§2) PGG β-glucan at concentration 60-80 mg/mL was incubated with human serum at 1:10 volume ratio for 30 minutes in a 37° C. water bath. The serum-pretreated PGG β-glucan was added to neutrophils at 200 μg/mL or to PBMC at 100 μg/mL resuspended in RPM1 containing either 10% regular autologous serum or 10% HI serum at indicated time and temperature of incubation. Binding was then determined as described previously.
(§3) To determine the role of complement proteins in binding, experiments were performed as described above except for using serum containing 10% HI, compstatin-treated or methylamine (MA)-treated, EGTA- or EGTA+MgCl2 (MgEGTA)-treated, or factor D-blocked serum. Heat-inactivated (HI) serum was prepared by incubating serum in a 56° C. water bath for 30 minutes. […] Treatment of serum with methylamine (MA) was done by incubating serum with 0.67% of methylamine for 2.5 hours at 37° C., followed by three washes with DPBS using Amicon centrifugal filter unit with a 3K MW cut-off (Millipore, Billerica, Mass.). DPBS-treated serum was prepared in the same manner and used as control serum for MA-treated serum. For blocking of factor D in the serum, 166-32 at concentration 20 μg/mL was incubated with serum on ice for 30 minutes, and then used for binding studies. […]

The test system of the next assay is sC5b-9 complex. As to the kind of experiment: Measurement of fluid-phase SC5b-9 complex formation in the serum. In kind it is biochemical, human. Conditions: serum treated with 10 mM EGTA with or without 10 mM MgCl2. The protocol:
The MicroVue SC5b-9 EIA kit was used to measure activation of the classical and alternative pathways of complement according to the vendor's instruction (Quidel Corp., San Diego, Calif.). Briefly, the serum, untreated or treated was mixed with PBS, Ab-sensitized sheep RBC (SRBC), or 20 units of CVF and added to plate wells pre-coated with anti-sC5b-9 monoclonal antibody. The plate was incubated at 37° C. for 60 minutes, followed by five washes with the provided wash buffer. The plate was then incubated with the provided SC5b-9 Plus Conjugate, which contained horseradish peroxidase-conjugated Ab specific for sC5b-9 at room temperature for 30 minutes. The plate was washed five times, incubated with the substrate for 15 minutes at room temperature to initiate the enzymatic reaction and subsequently quenched with the stop solution. OD450 Was measured using the spectrophotometer SpectraMAX 250. The concentration of fluid phase sC5b-9 present in the samples was determined from the standard curve generated with the provided sC5b-9 standards.

For assay [5], the system named is human monocytes. Briefly: Binding of PGG β-glucan after serum pre-treatment, monocytes. It is filed as cell-based. Particulars: 10 mM EGTA with or without 10 mM MgCl2; vs untreated serum. The protocol: as §2, §3
Assay [6] concerns the target T1, iC3b. As to the kind of experiment: Immunoprecipitation of PGG β-glucan with BfD IV and detection of pulled-down iC3b. In kind it is binding. Conditions: glucan incubated with regular serum. As for the experimental part:
PGG β-glucan or dextran at concentration 60-80 mg/mL was incubated with regular or HI serum at 1:10 volume ratio for 30 minutes in a 37° C. water bath. BfD IV Ab was added to the serum/β-glucan mixture and incubated at room temperature for additional 30 minutes. Magnetic beads conjugated with rat anti-mouse IgM (DYNABEADS, Invitrogen, Camarillo, Calif.) were washed three times with DPBS and incubated with serum-PGG β-glucan-BfD IV mixture for another 30 minutes at room temperature. The beads were separated magnetically and iC3b pulled-down along with immunoprecipitated PGG was probed using FITC-conjugated complement C3 Ab by flow cytometer.

The subject of assay [7] is human neutrophils. Briefly: Binding of DTAF-labeled PGG β-glucan to human neutrophils, with excess unlabeled competitor. In kind it is cell-based. Particulars: 10 mg/mL unlabeled competitor; 25 μg/mL DTAF-labeled β-glucan.
Experimental: In early optimization experiments, neutrophils, monocytes, and T cells were identified by staining with fluorescently labeled anti-CD 15, anti-CD 14, or anti-CD3 Abs, respectively. Events were collected on a LSRII flow cytometer (BD Biosciences, San Jose, Calif.) and analysis was performed using FLOWJO (Tree Star, Ashland, Oreg.). For assessing binding of DTAF-labeled PGG β-glucan to human neutrophils, 25 βg/mL, 100 μg/mL, or 400 μg/mL of labeled β-glucan was added to neutrophils resuspended in RPMI/10% serum, incubated in a 37° C., 5% CO2 humidified incubator for one hour, washed twice with cold FACS buffer, and fixed with 1% paraformaldehyde. Surface binding of DTAF-conjugated β-glucan was subsequently assessed by flow cytometric analysis.
Setting [8] is: 100 μM compstatin-treated serum vs control peptide, C3 blocking, three donors.

T1 sequence (P01024 749-1303 limits assumed): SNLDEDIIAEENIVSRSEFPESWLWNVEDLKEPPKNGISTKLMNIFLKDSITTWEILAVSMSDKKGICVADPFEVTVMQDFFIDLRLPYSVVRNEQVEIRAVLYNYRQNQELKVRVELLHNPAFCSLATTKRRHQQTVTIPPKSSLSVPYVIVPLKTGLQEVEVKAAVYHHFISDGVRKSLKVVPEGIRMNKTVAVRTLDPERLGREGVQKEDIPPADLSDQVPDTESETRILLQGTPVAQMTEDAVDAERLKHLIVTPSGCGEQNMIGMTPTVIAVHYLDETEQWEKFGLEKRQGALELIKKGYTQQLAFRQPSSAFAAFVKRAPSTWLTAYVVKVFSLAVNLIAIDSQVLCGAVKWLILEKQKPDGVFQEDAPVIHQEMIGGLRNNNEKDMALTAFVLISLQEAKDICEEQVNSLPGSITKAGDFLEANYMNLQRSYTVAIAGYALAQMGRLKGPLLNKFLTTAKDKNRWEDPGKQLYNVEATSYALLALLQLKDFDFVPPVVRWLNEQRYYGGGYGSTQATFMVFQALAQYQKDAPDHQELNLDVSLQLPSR
T1 sequence (P01024 23-667 partner limits assumed): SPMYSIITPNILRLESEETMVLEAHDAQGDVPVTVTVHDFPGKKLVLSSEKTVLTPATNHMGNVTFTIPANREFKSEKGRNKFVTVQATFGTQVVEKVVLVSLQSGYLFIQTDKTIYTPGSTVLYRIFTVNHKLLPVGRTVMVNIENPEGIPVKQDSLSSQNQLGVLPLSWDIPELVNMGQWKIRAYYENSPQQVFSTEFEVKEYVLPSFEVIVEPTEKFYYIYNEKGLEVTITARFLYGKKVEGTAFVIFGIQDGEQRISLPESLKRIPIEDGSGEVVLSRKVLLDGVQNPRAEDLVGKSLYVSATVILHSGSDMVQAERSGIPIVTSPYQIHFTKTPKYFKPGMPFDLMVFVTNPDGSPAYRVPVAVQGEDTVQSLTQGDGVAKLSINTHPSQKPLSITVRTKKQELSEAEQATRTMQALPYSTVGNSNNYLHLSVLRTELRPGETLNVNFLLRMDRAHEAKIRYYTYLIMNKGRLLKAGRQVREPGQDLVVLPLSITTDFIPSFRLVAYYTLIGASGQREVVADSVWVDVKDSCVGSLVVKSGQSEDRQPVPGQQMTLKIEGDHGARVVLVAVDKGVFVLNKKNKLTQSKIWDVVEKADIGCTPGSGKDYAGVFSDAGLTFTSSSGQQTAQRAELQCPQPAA
T1 sequence (P01024 1321-1663 partner limits assumed): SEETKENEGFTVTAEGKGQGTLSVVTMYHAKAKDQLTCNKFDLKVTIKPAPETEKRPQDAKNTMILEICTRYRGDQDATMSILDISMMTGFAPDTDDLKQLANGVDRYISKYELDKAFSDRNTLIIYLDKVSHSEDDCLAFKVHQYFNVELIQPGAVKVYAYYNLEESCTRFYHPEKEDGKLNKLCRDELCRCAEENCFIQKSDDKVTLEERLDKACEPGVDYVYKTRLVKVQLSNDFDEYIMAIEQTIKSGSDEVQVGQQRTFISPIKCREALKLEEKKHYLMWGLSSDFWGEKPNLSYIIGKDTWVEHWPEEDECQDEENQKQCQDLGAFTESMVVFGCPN

On to `CN` [methylamine], for which the “Effect of the agent added to serum or media on binding of PGG β-glucan” value (“Effect of the agent added” for short) in the assay with human neutrophils [1] and in the assay on human monocytes [2] was “abrogated the ability of PGG β-glucan to bind to cells” in each case. For the same compound, the “Effect of serum treatment on iC3b deposition on immobilized β-glucan” value at iC3b [3] is “complete inhibition of iC3b deposition”.
`O=C(O)CN(CCOCCOCCN(CC(=O)O)CC(=O)O)CC(=O)O` [EGTA]: the “Rescue of binding to cells in HI serum by PGG β-glucan pre-opsonized in treated serum” value with human neutrophils [4] was “rescue of binding was diminished”. Also, in the assay with sC5b-9 complex, the “Effect on CVF-activated alternative pathway (sC5b-9 formation)” value is “completely blocked both the classical and alternative pathways to background levels”; the “Effect on SRBC-activated classical pathway (sC5b-9 formation)” value is “completely blocked both the classical and alternative pathways to background levels”. The “Effect of serum treatment on iC3b deposition on immobilized β-glucan” value on iC3b [3] is reported as “completely inhibited”. Moreover, the “Rescue of binding to cells in HI serum by PGG β-glucan pre-opsonized in treated serum” value with human monocytes [5] was “rescue of binding was diminished”.
For the compound dextran [reference compound], at iC3b [3] (300 μg/mL immobilized, regular serum 30 minutes at 37° C.), the “Fold increase of iC3b detected on immobilized glucan compared to background” value is on record as “significantly less iC3b detected”. At iC3b [6], the “iC3b pulled down with BfD IV immunoprecipitate” value is “absence of iC3b”. In the assay on human neutrophils [7], the “Blocking of DTAF-labeled β-glucan staining by excess unlabeled glucan” value is reported as “did not block binding”.
Turning to `CC[C@H](C)[C@H](N)C(=O)N[C@H]1CSSC[C@@H](C(=O)N[C@H](C(N)=O)[C@@H](C)O)NC(=O)[C@H](CCCN=C(N)N)NC(=O)[C@H](Cc2cnc[nH]2)NC(=O)[C@H](Cc2cnc[nH]2)NC(=O)CNC(=O)[C@H](Cc2c[nH]c3ccccc23)NC(=O)[C@H](CC(=O)O)NC(=O)[C@H](CCC(N)=O)NC(=O)[C@H](C(C)C)NC(=O)[C@H](C(C)C)NC1=O` [compstatin], the “Average percentage of inhibition of β-glucan binding” value is 95% in the assay on human neutrophils [1] (setting [8]) and 80% in the assay with human monocytes [2] (setting [8]). Also, the figures for the “Range of percentage of inhibition of β-glucan binding” value in the assay on human neutrophils [1] (setting [8]) and in the assay with human monocytes [2] (setting [8]) were 90-98% and 62-92%, respectively. The “Effect of the agent added” value with human neutrophils [1] and in the assay with human monocytes [2] was “inhibited binding of β-glucan in a concentration-dependent manner” in each case.
As to “control peptide: control peptide IAVVQDWGHHRAT (SEQ ID NO:2) (control polypeptide)”, the “Effect of the agent added” value in the assay with human neutrophils [1] and in the assay with human monocytes [2] was “no effect on binding” throughout.
